Assay results as given in ChEMBL document CHEMBL4814055, “Design, synthesis and molecular modeling studies of novel mesalamine linked coumarin for treatment of inflammatory bowel disease” (Bioorg Med Chem Lett, 2021).
Calls of active or inactive are those of the source. No cut-off for these calls is given here.

Experiments:
Rattus norvegicus [1] = assay: Anti-ulcerative colitis activity in acetic acid-induced Wistar rat ulcerative colitis model assessed as reduction in infiltration of inflammatory cells in colon at 400 mg/kg, po administrated for 14 days by microscopic analysis; format: functional, organism-based; details: time 14.0 day
Rattus norvegicus [2] = assay: Anti-ulcerative colitis activity in acetic acid-induced ulcerative colitis Wistar rat model assessed as change in stool uniformity at 400 mg/kg, po administrated for 14 days; format: functional, organism-based; details: time 14.0 day
Rattus norvegicus [3] = assay: Anti-ulcerative colitis activity in acetic acid-induced ulcerative colitis Wistar rat model assessed as body weight recovery measured as body weight gain at 400 mg/kg, po administrated for 14 days relative to control; format: functional; details: time 14 day
Rattus norvegicus [4] = assay: Anti-ulcerative colitis activity in acetic acid-induced ulcerative colitis Wistar rat model assessed as reduction in acetic acid-induced lipid peroxidation by measuring reduction in MDA level in colon at 400 mg/kg, po administrated for 14 days; format: functional, organism-based; details: time 14.0 day
Rattus norvegicus [5] = assay: Anti-ulcerative colitis activity in acetic acid-induced ulcerative colitis Wistar rat model assessed as reduction in acetic acid-induced oxidative stress by measuring increase in SOD level in colon at 400 mg/kg, po administrated for 14 days by UV spectrophotometric analysis; format: functional, organism-based; details: time 14.0 day
Rattus norvegicus [6] = assay: Anti-ulcerative colitis activity in acetic acid-induced ulcerative colitis Wistar rat model assessed as reduction in damage of mucosa in colon at 400 mg/kg, po administrated for 14 days by microscopic analysis; format: functional, organism-based; details: time 14.0 day
Rattus norvegicus [7] = assay: Anti-ulcerative colitis activity in acetic acid-induced ulcerative colitis Wistar rat model assessed as reduction in sub-mucosal edema in colon at 400 mg/kg, po administrated for 14 days by microscopic analysis; format: functional, organism-based; details: time 14.0 day
Rattus norvegicus [8] = assay: Anti-ulcerative colitis activity in acetic acid-induced ulcerative colitis Wistar rat model assessed as mild deformation of mucosal layer with disruption of epithelium in colon at 400 mg/kg, po administrated for 14 days by microscopic analysis; format: functional, organism-based; details: time 14.0 day
Rattus norvegicus [9] = assay: Anti-ulcerative colitis activity in acetic acid-induced ulcerative colitis Wistar rat model assessed as reduction in diarrhea at 400 mg/kg, po administrated for 14 days and measured during initial 5 to 6 days of treatment; format: functional, organism-based; details: time 5-6 day
Rattus norvegicus [10] = assay: Anti-ulcerative colitis activity in acetic acid-induced ulcerative colitis Wistar rat model assessed as reduction in onset of diarrhea at 400 mg/kg, po administrated for 14 days and measured during initial 8 to 9 days of treatment; format: functional, organism-based; details: time 8-9 day
Rattus norvegicus [11] = assay: Anti-ulcerative colitis activity in acetic acid-induced ulcerative colitis Wistar rat model assessed as reduction in blood content in feces with parrot green to green dotted colour at 400 mg/kg,po administrated for 14 days; format: functional, organism-based; details: time 14.0 day
Rattus norvegicus [12] = assay: Anti-ulcerative colitis activity in acetic acid-induced ulcerative colitis Wistar rat model assessed as normal mucosa without cryptic loss in colon at 400 mg/kg, po administrated for 14 days by microscopic analysis; format: functional, organism-based; details: time 14.0 day
[13] = Toxicity in albino rat assessed as lethality at 2000 mg/kg; format: organism-based; details: in vivo
[14] = Toxicity in albino rat assessed as toxic signs at 300 mg/kg observed for 14 days; format: organism-based; details: in vivo, 336 h, time 14 day
[15] = Toxicity in albino rat assessed as toxic symptoms at 300 mg/kg observed for 14 days; format: organism-based; details: in vivo, 336 h, time 14 day
[16] = Toxicity in albino rat assessed as behavioral changes at 300 mg/kg observed for 14 days; format: organism-based; details: in vivo, 336 h, time 14 day
Rattus norvegicus [17] = assay: Anti-ulcerative colitis activity in acetic acid-induced ulcerative colitis Wistar rat model assessed as restoration of normal stool consistency at 400 mg/kg, po administrated for 14 days and measured during initial 4-5 days of treatment; format: functional, organism-based; details: time 4-5 day
Rattus norvegicus [18] = assay: Anti-ulcerative colitis activity in acetic acid-induced ulcerative colitis Wistar rat model assessed as decrease in bleeding at 400 mg/kg, po administrated for 14 days and measured during initial 4-5 days of treatment; format: functional, organism-based; details: time 4-5 day
Rattus norvegicus [19] = assay: Anti-ulcerative colitis activity in acetic acid-induced ulcerative colitis Wistar rat model assessed as reduction in blood content in feces without change in feces colour at 400 mg/kg, po administrated for 14 days; format: functional, organism-based; details: time 14.0 day

SMILES	Activity (Rattus norvegicus [1])	Activity (Rattus norvegicus [2])	Activity (Rattus norvegicus [3]) [%]	Activity (Rattus norvegicus [4])	Activity (Rattus norvegicus [5])	Activity (Rattus norvegicus [6])	Activity (Rattus norvegicus [7])	Activity (Rattus norvegicus [8])	Activity (Rattus norvegicus [9])	Activity (Rattus norvegicus [10])	Activity (Rattus norvegicus [11])	Activity (Rattus norvegicus [12])	Activity [13]	Activity [14]	Activity [15]	Activity [16]	Activity (Rattus norvegicus [17])	Activity (Rattus norvegicus [18])	Activity (Rattus norvegicus [19])
Nc1ccc(O)c(C(=O)O)c1 [MESALAMINE]	Active	Active	88	Active	Active	Active	Active	inactive	Active	Active	Active	–	–	–	–	–	–	–	–
Cc1cc(=O)oc2c(/N=N/c3ccc(O)c(C(=O)O)c3)c(O)ccc12	–	Active	92	Active	Active	–	–	–	Active	Active	–	Active	Toxic	Non-Toxic	Non-Toxic	Non-Toxic	Active	Active	Active
